Measured values: US7655429B2, “Immunoassays for topiramate” (Seradyn, Inc., priority 2004, dated 2010)

Experiments:
[1] = tested on: anti-topiramate antibodies prepared with immunogen (17); experiment: ELISA binding inhibition study (avidity), free topiramate versus coated antigen; parameters: species or system Rabbit
Protocol: ELISA plates for use in an ELISA assay are prepared in order to study the polyclonal antibody prepared as described in Example 21. As such, various topiramate antigens (16), (19), and (20) are coated on different ELISA plates before being subjected to the anti-topiramate antibody and competing free topiramate. More particularly, the topiramate antigens are diluted in coating buffer, and then added to the wells of ELISA plate. After the ELISA plate is incubated for 60 min at 37° C., the solvent in the coating buffer is decanted and a blocking buffer is added to the plate. The plate is incubated again for 60 min at 37° C., and the solvent in the blocking buffer is decanted from the plate. The ELISA plate is then stored with the blocking agent in the wells at 2-8° C. for up to 1 week. The avidity of the anti-topiramate antibodies prepared with immunogen (17) for topiramate analogs are determined by a binding inhibition study. As such, samples are prepared in 1 mL of PBS at pH 7.4 with 0.1% BSA. A composition having 30% Bmax titer or 50% Bmax titer is used to divide the obtained titer value into approximately half the titer value. Using 30% Bmax, an antibody titer of 1:10,000 is diluted to 1:5,000 during the sample preparation stage. About 50 μL of topiramate at different concentrations or calibrator values, (0, 2, 4, 8, 16, 32 μg/ml) are then applied to a plate as prepared in accordance with Example 22. About 50 μL of the diluted antibody is dispensed into the plate, and the compositions in the plate are mixed for 1 min on a horizontal plate shaker. The plate is characterized by a first row not containing topiramate or anti-topiramate antibody, wherein the first row is used as a negative control. A second row not containing topiramate is used as the positive control. The plate is incubated for 60 min, and washed three times with 250 μL of PBS at pH 7.4 with 0.05% tween. About 125 μL of a diluted second antibody conjugate such as antigens (16), (19), or (20), in PBS at pH 7.4 is added to each well of the plate. Titer is determined experimentally by the plate being incubated for 60 min at 37° C. and washed 3 times with 250 μL PBS, pH 7.4 with 0.05% tween. Subsequently, about 125 μL of ABTS substrate is added to each well of the plate and incubated for 20 min.

[2] = cited from earlier work
[3] = Antigen 16, Topiramate 2 μg/ml, Rabbit No. 5481
[4] = Antigen 16, Topiramate 2 μg/ml, Rabbit No. 5492
[5] = Antigen 16, Topiramate 4 μg/ml, Rabbit No. 5481
[6] = Antigen 16, Topiramate 4 μg/ml, Rabbit No. 5492
[7] = Antigen 16, Topiramate 8 μg/ml, Rabbit No. 5481
[8] = Antigen 16, Topiramate 8 μg/ml, Rabbit No. 5492
[9] = Antigen 16, Topiramate 16 μg/ml, Rabbit No. 5481
[10] = Antigen 16, Topiramate 16 μg/ml, Rabbit No. 5492
[11] = Antigen 16, Topiramate 32 μg/ml, Rabbit No. 5481
[12] = Antigen 16, Topiramate 32 μg/ml, Rabbit No. 5492
[13] = Antigen 19, Topiramate 2 μg/ml, Rabbit No. 5481
[14] = Antigen 19, Topiramate 2 μg/ml, Rabbit No. 5492
[15] = Antigen 19, Topiramate 4 μg/ml, Rabbit No. 5481
[16] = Antigen 19, Topiramate 4 μg/ml, Rabbit No. 5492
[17] = Antigen 19, Topiramate 8 μg/ml, Rabbit No. 5481
[18] = Antigen 19, Topiramate 8 μg/ml, Rabbit No. 5492
[19] = Antigen 19, Topiramate 16 μg/ml, Rabbit No. 5481
[20] = Antigen 19, Topiramate 16 μg/ml, Rabbit No. 5492
[21] = Antigen 19, Topiramate 32 μg/ml, Rabbit No. 5481
[22] = Antigen 19, Topiramate 32 μg/ml, Rabbit No. 5492
[23] = Antigen 20, Topiramate 2 μg/ml, Rabbit No. 5481
[24] = Antigen 20, Topiramate 2 μg/ml, Rabbit No. 5492
[25] = Antigen 20, Topiramate 4 μg/ml, Rabbit No. 5481
[26] = Antigen 20, Topiramate 4 μg/ml, Rabbit No. 5492
[27] = Antigen 20, Topiramate 8 μg/ml, Rabbit No. 5481
[28] = Antigen 20, Topiramate 8 μg/ml, Rabbit No. 5492
[29] = Antigen 20, Topiramate 16 μg/ml, Rabbit No. 5481
[30] = Antigen 20, Topiramate 16 μg/ml, Rabbit No. 5492
[31] = Antigen 20, Topiramate 32 μg/ml, Rabbit No. 5481
[32] = Antigen 20, Topiramate 32 μg/ml, Rabbit No. 5492
[33] = dose escalation add-on studies, morning serum

CC1(C)O[C@@H]2[C@@H](CO[C@@]3(COS(N)(=O)=O)OC(C)(C)O[C@@H]23)O1 [Topiramate, 2,3:4,5-di-O-isopropylidene-beta-D-fructopyranose sulfamate]
Abs [1, 3]: 0.29
B/Bo [1, 3]: 0.38
Abs [1, 4]: 0.25
B/Bo [1, 4]: 0.56
Abs [1, 5]: 0.26
B/Bo [1, 5]: 0.34
Abs [1, 6]: 0.20
B/Bo [1, 6]: 0.44
Abs [1, 7]: 0.18
B/Bo [1, 7]: 0.24
Abs [1, 8]: 0.15
B/Bo [1, 8]: 0.33
Abs [1, 9]: 0.15
B/Bo [1, 9]: 0.20
Abs [1, 10]: 0.13
B/Bo [1, 10]: 0.29
Abs [1, 11]: 0.11
B/Bo [1, 11]: 0.14
Abs [1, 12]: 0.01
B/Bo [1, 12]: 0.02
Abs [1, 13]: 0.33
B/Bo [1, 13]: 0.40
Abs [1, 14]: 0.31
B/Bo [1, 14]: 0.38
Abs [1, 15]: 0.25
B/Bo [1, 15]: 0.30
Abs [1, 16]: 0.23
B/Bo [1, 16]: 0.28
Abs [1, 17]: 0.20
B/Bo [1, 17]: 0.24
Abs [1, 18]: 0.19
B/Bo [1, 18]: 0.23
Abs [1, 19]: 0.18
B/Bo [1, 19]: 0.22
Abs [1, 20]: 0.17
B/Bo [1, 20]: 0.20
Abs [1, 21]: 0.15
B/Bo [1, 21]: 0.18
Abs [1, 22]: 0.15
B/Bo [1, 22]: 0.18
Abs [1, 23]: 0.32
B/Bo [1, 23]: 0.53
Abs [1, 24]: 0.45
B/Bo [1, 24]: 0.64
Abs [1, 25]: 0.30
B/Bo [1, 25]: 0.50
Abs [1, 26]: 0.41
B/Bo [1, 26]: 0.59
Abs [1, 27]: 0.25
B/Bo [1, 27]: 0.42
Abs [1, 28]: 0.38
B/Bo [1, 28]: 0.54
Abs [1, 29]: 0.22
B/Bo [1, 29]: 0.37
Abs [1, 30]: 0.38
B/Bo [1, 30]: 0.54
Abs [1, 31]: 0.18
B/Bo [1, 31]: 0.30
Abs [1, 32]: 0.28
B/Bo [1, 32]: 0.40
serum concentration with reduction in seizure control [2, 33]: greater than 75 μmol/L
serum concentration with significant increase in side effects [2, 33]: > 60 µmol/L
systemic topiramate concentrations ([2]; patients receiving considerably higher doses, up to 2000 mg): ≤ 80 µmol/L
